Source: ChEMBL document CHEMBL5104160, “In vitro and in vivo neuroprotective effect of novel mPGES-1 inhibitor in animal model of Parkinson's disease” (Bioorg Med Chem Lett, 2022)
pEC50, pIC50: −log10 of the molar value. Activity calls are given as the source filed them. No cut-off for these calls is given here.

Legend:
[1] = Inhibition of PGE2 production in LPS-induced mouse RAW264.7 cells; format: functional, cell-based
RAW264.7 [2] = assay: Cytotoxicity against mouse RAW264.7 cells assessed as decrease in cell viability at 1 uM; format: toxicity, cell-based; conditions: raw264.7, 1 µM
Mus musculus [3] = assay: Neuroprotective effect in 6-OHDA-induced lesioned mouse model of Parkinson's disease assessed as decrease in time to turn at 80 mg/kg/day, po administered for 7 days measured by Pole test; format: functional, organism-based; conditions: time 7.0 day
Mus musculus [4] = assay: Neuroprotective effect in 6-OHDA-induced lesioned mouse model of Parkinson's disease assessed as decrease in time for locomotion activity at 80 mg/kg/day, po administered for 7 days measured by Pole test; format: functional, organism-based; conditions: time 7.0 day
RAW264.7 [5] = assay: Cytotoxicity against mouse RAW264.7 cells assessed as decrease in cell viability at 100 to 1000 nM; format: toxicity, cell-based; conditions: raw264.7, 1 µM, dose 100-1000 nM
A549 = assay: Inhibition of PGE2 production in IL-1beta-induced human A549 cells assessed as decrease in PGE2 production measured after 24 hrs by enzyme immunoassay; format: functional, cell-based; conditions: A549, 24 h
Blood = assay: Inhibition of PGE2 production in LPS-induced human whole blood; format: functional, tissue-based
Prostaglandin E synthase = target: T1, Prostaglandin E synthase (Homo sapiens, UniProt O14684); assay: Inhibition of human mPGES-1 assessed as reduction in PGE2 production
T1 sequence (O14684 whole entry): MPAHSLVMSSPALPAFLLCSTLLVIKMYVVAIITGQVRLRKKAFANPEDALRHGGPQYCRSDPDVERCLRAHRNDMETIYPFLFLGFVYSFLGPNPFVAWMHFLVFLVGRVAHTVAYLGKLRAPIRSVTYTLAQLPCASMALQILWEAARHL

PC-12 [6] = assay: Neuroprotective activity against 6-OHDA-induced cytotoxicity in rat PC-12 cells at 10 uM measured after 12 hrs by MTT assay; format: functional, cell-based
PC-12 [7] = assay: Neuroprotective activity against 6-OHDA-induced cytotoxicity in rat PC-12 cells measured after 3 hrs by MTT assay; format: functional; conditions: read-out: ED50 (the source's name)
Mus musculus [8] = assay: Neuroprotective effect in 6-OHDA-induced lesioned mouse model of Parkinson's disease assessed as decrease in time to turn at 1 mg/kg/day, ip administered for 7 days measured by Pole test; format: functional, organism-based; conditions: time 7.0 day
Mus musculus [9] = assay: Neuroprotective effect in 6-OHDA-induced lesioned mouse model of Parkinson's disease assessed as decrease in time for locomotion activity at 1 mg/kg/day, ip administered for 7 days measured by Pole test; format: functional, organism-based; conditions: time 7.0 day
Mus musculus [10] = assay: Neuroprotective effect in 6-OHDA-induced lesioned mouse model of Parkinson's disease assessed as increase in latency time at 1 mg/kg/day, ip administered for 7 days measured by rotarod test; format: functional, organism-based; conditions: time 7.0 day
Mus musculus [11] = assay: Neuroprotective effect in 6-OHDA-induced lesioned mouse model of Parkinson's disease assessed as decrease in falling frequency at 1 mg/kg/day, ip administered for 7 days measured by rotarod test; format: functional, organism-based; conditions: time 7.0 day
Mus musculus [12] = assay: Neuroprotective activity against in 6-OHDA-induced neurotoxicity in mouse assessed as increase in tyrosine hydroxylase (TH)-positive fibers in striatum of brain at 1 mg/kg/day, ip administered for 7 days measured by immunohistochemistry analysis; format: functional, organism-based; conditions: time 7.0 day
Mus musculus [13] = assay: Neuroprotective activity against in 6-OHDA-induced neurotoxicity in mouse assessed as increase in tyrosine hydroxylase (TH)-positive neurons in substantia nigra pars compacta of brain at 1 mg/kg/day, ip administered for 7 days measured by immunohistochemistry analysis; format: functional, organism-based; conditions: time 7.0 day

Cc1cccc(NN(C(=O)Oc2ccc([N+](=O)[O-])cc2)S(=O)(=O)c2ccc(Cl)cc2)c1
pIC50 [1]: 6.09
Activity (RAW264.7 [2]): Non-Toxic

N[C@@H](Cc1ccc(O)c(O)c1)C(=O)O
Activity (Mus musculus [3]): Active
Activity (Mus musculus [4]): Active

Cc1cc(C)c(S(=O)(=O)N(Nc2ccccc2)C(=O)Oc2cccc3c2CCC3)c(C)c1
pIC50 [1]: 6.50
Activity (RAW264.7 [2]): Non-Toxic

O=C(Oc1ccc(OCc2ccccc2)cc1)N(Nc1cccc(Cl)c1)S(=O)(=O)c1ccc(Cl)cc1
pIC50 [1]: 7.38
Activity (RAW264.7 [2]): Non-Toxic
Activity (RAW264.7 [5]): Non-Toxic
pIC50 (A549): 6.84
pIC50 (Blood): 6.37
pIC50 (Prostaglandin E synthase): 8.94
Activity (PC-12 [6]): Active
pEC50 (PC-12 [7]): 8.52
Activity (Mus musculus [8]): Active
Activity (Mus musculus [9]): Active
Activity (Mus musculus [10]): Active
Activity (Mus musculus [11]): Active
Activity (Mus musculus [12]): Active
Activity (Mus musculus [13]): Active

Cc1ccc(S(=O)(=O)N(Nc2ccccc2)C(=O)Oc2cccc3c2CCC3)cc1
pIC50 [1]: 6.40
Activity (RAW264.7 [2]): Non-Toxic

O=C(Oc1ccc(OCc2ccccc2)cc1)N(Nc1ccccc1)S(=O)(=O)c1ccc(-c2ccccc2)cc1
pIC50 [1]: 7.03
Activity (RAW264.7 [2]): Non-Toxic

O=C(Oc1ccc(OCc2ccccc2)cc1)N(Nc1ccccc1)S(=O)(=O)c1ccc(C(F)(F)F)cc1
pIC50 [1]: 7.33
Activity (RAW264.7 [2]): Non-Toxic

Cc1cc(C)c(S(=O)(=O)N(Nc2ccccc2)C(=O)Oc2ccc(OCc3ccccc3)cc2)c(C)c1
Activity (RAW264.7 [2]): Non-Toxic

O=C(Oc1ccc([N+](=O)[O-])cc1)N(Nc1cccc(Cl)c1)S(=O)(=O)c1ccc(Cl)cc1
pIC50 [1]: 6.12
Activity (RAW264.7 [2]): Non-Toxic

O=C(Oc1ccc(Oc2ccccc2)cc1)N(Nc1ccccc1)S(=O)(=O)c1ccc(-c2ccccc2)cc1
pIC50 [1]: 6.79
Activity (RAW264.7 [2]): Non-Toxic

Cc1cc(C)c(S(=O)(=O)N(Nc2ccccc2)C(=O)Oc2ccc(Oc3ccccc3)cc2)c(C)c1
pIC50 [1]: 6.75
Activity (RAW264.7 [2]): Non-Toxic

Cc1ccccc1NN(C(=O)Oc1ccccc1)S(=O)(=O)c1ccc(Cl)cc1
pIC50 [1]: < 6.00
Activity (RAW264.7 [2]): Non-Toxic

CC(C)(C)c1ccc(S(=O)(=O)N(Nc2ccccc2)C(=O)Oc2ccc(OCc3ccccc3)cc2)cc1
Activity (RAW264.7 [2]): Non-Toxic

O=C(Oc1ccc(OCc2ccccc2)cc1)N(Nc1ccccc1)S(=O)(=O)c1ccc(Cl)cc1
pIC50 [1]: 7.23
Activity (RAW264.7 [2]): Non-Toxic

Cc1ccccc1NN(C(=O)Oc1ccccc1)S(=O)(=O)c1ccccc1
pIC50 [1]: 6.00
Activity (RAW264.7 [2]): Non-Toxic

O=C(Oc1cccc2c1CCC2)N(Nc1ccccc1)S(=O)(=O)c1ccc(Cl)cc1
pIC50 [1]: 6.37
Activity (RAW264.7 [2]): Non-Toxic

O=C(Oc1ccccc1)N(Nc1ccccc1)S(=O)(=O)c1ccc(F)cc1
Activity (RAW264.7 [2]): Non-Toxic

O=C(Oc1cccc2c1CCC2)N(Nc1ccccc1)S(=O)(=O)c1ccc(C(F)(F)F)cc1
pIC50 [1]: 6.61
Activity (RAW264.7 [2]): Non-Toxic

O=C(Oc1ccccc1)N(Nc1ccccc1)S(=O)(=O)c1ccc(Br)cc1
Activity (RAW264.7 [2]): Non-Toxic

O=C(Oc1ccc([N+](=O)[O-])cc1)N(Nc1ccc(Cl)cc1)S(=O)(=O)c1ccc(Cl)cc1
pIC50 [1]: 6.19
Activity (RAW264.7 [2]): Non-Toxic

CCc1ccc(S(=O)(=O)N(Nc2ccccc2)C(=O)Oc2ccc(Oc3ccccc3)cc2)cc1
pIC50 [1]: 6.36
Activity (RAW264.7 [2]): Non-Toxic
